Data: patent US8748109B2, “Method for the detection of organ or tissue injury” (priority 2009, dated 2014)
Residues, ends and D or L forms follow the SMILES beside them. *: point of attachment. Cbz = O=C(OCc1ccccc1)*; CH2F = FC*

Legend:
HMGB-1 = test system: HMGB-1
Text: (A) Schematic overview of the location of cysteine 106 within the cytokine domain of murine HMGB-1 which is characterized by MS/MS. […] MS/MS and western figures are representative of 6 mice per group.

HMGB1 [1] = assay: Total serum HMGB1 by ELISA; assay type: in vivo, mouse; conditions: for Serum Biomarker elevation Total HMGB1: APAP 530 mg/kg i.p., CD-1 mice
ALT = assay: Serum alanine transaminase (ALT) activity; assay type: in vivo, mouse; conditions: for Serum Biomarker elevation ALT activity: APAP 530 mg/kg i.p., CD-1 mice
HMGB1 [2] = assay: Serum hypo- and hyper-acetylated HMGB1 by LC-MS/MS (relative values); assay type: in vivo, mouse; conditions: APAP 530 mg/kg, mice, post dose, 0-24 hr time course
Description: Overnight immunoprecipitations (IP) of serum K18 and HMGB1 (5 μg antibody and protein G separation) were subjected to SDS-PAGE. Protein bands were excised from Coomassie Blue-stained gels, destained by incubation with 50% acetonitrile/50 mM ammonium bicarbonate followed by vacuum drying. Gel pieces were rehydrated in 50 mM ammonium bicarbonate containing 40 ng/μL modified trypsin (K18) or GluC (HMGB1) and incubated for 16 hr at 37° C. Peptides were extracted by incubation with 2 changes of 60% acetonitrile/1% trifluoroacetic acid and the resulting supernatants were again dried. Extracts were desalted using C18 ZipTips according to the manufacturer's instructions and reconstituted in 5% acetonitrile/0.1% trifluoroacetic acid. For LC-MS/MS analysis, samples were delivered into a QSTAR Pulsar i hybrid mass spectrometer (Applied Biosystems) by automated in-line liquid chromatography (integrated LC-Packings System, 5 mm C18 nano-precolumn and 75 μm×15 cm C18 PepMap column (Dionex, Calif., USA) via a nano-electrospray source head and 10 μm inner diameter PicoTip (New Objective, USA). A gradient from 5% acetonitrile/0.05% trifluoroacetic acid (v/v) to 48% acetonitrile/0.05% trifluoroacetic acid (v/v) in 60 min was applied at a flow rate of […], MS and MS/MS spectra were acquired automatically in positive ion mode using information-dependent acquisition (Analyst, Applied Biosystems). Database searching was performed using Protein Pilot 2 (Applied Biosystems) with the latest version of the SwissProt database, with the confidence level set at 80%, and with biological modifications allowed. Quantification of murine serum full length K18 and caspase dependent K18 fragments was accomplished through construction of standard curves generated with synthetic peptide standards spiked into and could be recovered from control serum and compared to immunoassay (17). The full length K18 standard ([…]) was designed to span the caspase 3, 7, 9 cleavage site, whereas the abbreviated peptide ([…]) is only derived from K18 fragments with the caspase cleavage site cut (limit of detection; 300 fmol/ml. coefficient of variation; <10%). HMGB1 and its hyper-acetylated derivative were quantified by spectral counting of the peptide peak, since no synthetic standards were available, and are consequently presented only as relative values and compared to total levels determined by ELISA according to the manufacturer's instructions (limit of detection; 0.1 ng/ml. coefficient of variation; <10%).

caspase-3 = assay: Caspase-3 western blotting of liver cytosol; assay type: in vivo, mouse; design: key to Caspase 3 processing (WB): (+) indicates positive detection of DNA laddering or processing of caspase-3 by western blot (WB); conditions: for Caspase 3 processing (WB): hepatic, APAP 530 mg/kg i.p., CD-1 mice
Description: (§1) Caspase-3 western blotting was carried out as described previously (30) on mouse liver cytosol fractions prepared from snap frozen livers. DNA was isolated from snap frozen livers using the Sigma-Aldrich GeneElute kit according to the manufacturer's instructions. DNA laddering was visualised through ethidium bromide staining following separation on a 1% agarose gel. […] The number of cleaved caspase-3 positive cells (cytoplasmic staining) was evaluated semi-quantitatively (− no positive cells; + scattered positive cells; ++ moderate number of positive cells, +++ numerous positive cells).

[3] = test system: Total hepatic glutathione (GSH+GSSG); assay: Determination of hepatic glutathione levels; assay type: in vivo, mouse; design: key to GSH depletion: (+) indicates significant; (−) non-significant hepatic GSH depletion compared to control animals; conditions: for GSH depletion: hepatic, APAP 530 mg/kg i.p., CD-1 mice
Description: Total hepatic glutathione (GSH+GSSG) levels were determined as described previously (29).

DNA laddering = assay: Hepatic DNA laddering (agarose gel); assay type: in vivo, mouse; design: key: (+) indicates positive detection of DNA laddering or processing of caspase-3 by western blot (WB)
Description: as §1

apoptotic markers = assay: Effect of Z-VAD.fmk on APAP-induced apoptotic markers (DNA laddering, pro-caspase 3 processing, serum caspase cleaved K18); assay type: in vivo, mouse; conditions: Z-VAD.fmk 10 mg/kg i.v. 15 min pre-APAP (530 mg/kg; 5 hr), compared with APAP alone
Description: as §1
Overnight immunoprecipitations (IP) of serum K18 and HMGB1 (5 μg antibody and protein G separation) were subjected to SDS-PAGE. […] Quantification of murine serum full length K18 and caspase dependent K18 fragments was accomplished through construction of standard curves generated with synthetic peptide standards spiked into and could be recovered from control serum and compared to immunoassay (17). […] HMGB1 and its hyper-acetylated derivative were quantified by spectral counting of the peptide peak, since no synthetic standards were available, and are consequently presented only as relative values and compared to total levels determined by ELISA according to the manufacturer's instructions (limit of detection; 0.1 ng/ml. coefficient of variation; <10%).

male CD-1 mice = assay: Histological assessment of hepatotoxicity (H&E liver sections, hepatocyte loss score); conditions: APAP co-dosed with Z-VAD.fmk, 5 hr
[4] = APAP 530 mg/kg, mice, 3-24 hr time course
[5] = APAP 530 mg/kg, mice, 10 hr post treatment

Structure (SMILES): CC(=O)Nc1ccc(O)cc1 [APAP, Acetaminophen]
- serum molecular form of HMGB-1 present (HMGB-1; fasted mice dosed with APAP (530 mg/kg; 5 h)): the only serum molecular form of HMGB-1 present was the reduced form
- predominant form of HMGB-1 in sera (HMGB-1; fed mice dosed with APAP (530 mg/kg; 5 h)): oxidized, immune-tolerant form
- toxicity (HMGB-1; mouse, in vivo): displaying toxicity
- Serum Biomarker elevation Total HMGB1 (HMGB1 [1]; 3 hr): +
- Serum Biomarker elevation Total HMGB1 (HMGB1 [1]; 5 hr): +
- Serum Biomarker elevation Total HMGB1 (HMGB1 [1]; 10 hr): +
- Serum Biomarker elevation Total HMGB1 (HMGB1 [1]; 15 hr): +
- Serum Biomarker elevation Total HMGB1 (HMGB1 [1]; 20 hr): −
- Serum Biomarker elevation Total HMGB1 (HMGB1 [1]; 24 hr): −
- last time point with serum HMGB1 elevation (HMGB1 [1]; [4]): ≤ 15 h
- Serum Biomarker elevation ALT activity (ALT; 3 hr): +
- Serum Biomarker elevation ALT activity (ALT; 5 hr): +
- Serum Biomarker elevation ALT activity (ALT; 10 hr): +
- Serum Biomarker elevation ALT activity (ALT; 15 hr): +
- Serum Biomarker elevation ALT activity (ALT; 20 hr): +
- Serum Biomarker elevation ALT activity (ALT; 24 hr): +
- increased serum ALT activity, time course (ALT; [4]): observed over the entire time course
- time of first significant elevation of necrosis-associated (hypo-acetylated) serum HMGB1 (HMGB1 [2]): 3 h
- time of first significant increase of immune cell derived (hyper-acetylated) serum HMGB1 (HMGB1 [2]): 5 h
- time of peak of immune cell derived (hyper-acetylated) serum HMGB1 (HMGB1 [2]): 15 h
- time of return to control levels of immune cell derived (hyper-acetylated) serum HMGB1 (HMGB1 [2]): ≤ 24 h
- caspase 3 processing (caspase-3; [5]): no evidence
- Caspase 3 processing (WB) (caspase-3; 3 hr): +
- Caspase 3 processing (WB) (caspase-3; 5 hr): +
- Caspase 3 processing (WB) (caspase-3; 10 hr): +
- GSH depletion ([3]; 3 hr): +
- GSH depletion ([3]; 5 hr): +
- GSH depletion ([3]; 10 hr): −
- GSH depletion ([3]; 15 hr): −
- GSH depletion ([3]; 20 hr): −
- GSH depletion ([3]; 24 hr): −
- DNA laddering (DNA laddering; [5]): no evidence
- DNA laddering (DNA laddering; hepatic, APAP 530 mg/kg i.p., CD-1 mice, 3 hr): +
- DNA laddering (DNA laddering; hepatic, APAP 530 mg/kg i.p., CD-1 mice, 5 hr): +

Structure (SMILES): COC(=O)C[C@H](NC(=O)[C@H](C)NC(=O)[C@@H](NC(=O)OCc1ccccc1)C(C)C)C(=O)CF [Z-VAD.fmk] (Cbz-Val-Ala-Asp(OMe)-CH2F)
- molecular form of HMGB1 detected (HMGB-1; Z-VAD.fmk in APAP-treated, fed mice): only the reduced molecular form
- serum ALT level compared with APAP alone (ALT; Z-VAD.fmk and APAP (530 mg/kg; 5 hr)): increased
- detection of apoptotic markers in APAP dosed mice (apoptotic markers): completely inhibited
- apoptotic hepatocyte death by histology and immunohistology for cleaved caspase-3 (male CD-1 mice): no evidence
- Histological scoring of centrilobular hepatocyte loss (male CD-1 mice; score 0-5, higher than APAP alone (p<0.05)): 2-3
- effect on APAP-mediated GSH depletion ([3]; Z-VAD.fmk pre-treatment, APAP 530 mg/kg, 5 hr): no effect
